Measured values taken from patent US9645147B2, “Recombinant polypeptide construct comprising Plasmodium falciparum circumsporozoite protein HLA class I restricted T-cell epitopes” (priority 2013, dated 2017).
“Also recorded” adds a separate entry of the source. Peptide text beside a SMILES is read from it.

Experiments:
Type in all cases: cell-based, human
[1] = test system: PBMC from volunteers immunized with Ad-CA or Ad-C; assay: IFN-γ ELISpot assay with cryopreserved PBMC of immunized volunteers; settings: for Epitope sfc/m: Table 4; for ELISpot response to synthesized epitope (in words): volunteers, positive = p<0.05, at least doubling and at least ten sfc over negative control; for 15 mer sfc/m: Table 2, individual 15mer at 10 μg/mL; for ELISpot response to individual 15mer peptide (in words): volunteers immunized with Ad-CA or Ad-C
Procedure: Previous studies have confirmed that recall-T cell responses, as assayed by ELISpot, are detected using cryopreserved PBMCs although such responses are generally of a lower magnitude than fresh cells (Sedegah, et al., Malar J., 9: 241 (2011)).
The positive control was commercially obtained Class I Peptide Pool Plus (Anaspec, USA). Negative control was media with all supplements but no antigen-specific stimulant.
Throughout the studies, IFN-γ ELISpot assays were conducted as previously described (Sedegah, et al., Malar J., 9: 241 (2011); Wang, et al., PNAS (USA), 98: 10817-22 (2001)). Cryopreserved PBMC were suspended in 100 μL complete medium and stimulated with CSP peptides in 100 μL of complete medium at a final concentration of 10 μg/mL of each peptide tested (Wang, et al., PNAS (USA), 98: 10817-22 (2001)).
Cultures were incubated for 36 hours at 37° C., 5% CO2. Depending on availability of cells, each PBMC sample was assayed in duplicate, triplicate, or quadruplicate and the number of IFN-γ-secreting spot forming cells (sfc) was counted using an automated ELISpot reader (AID, GmbH, Germany). In duplicate assays, all values were used in analysis. […] The mean number of sfcs obtained in negative control wells was subtracted from the value of each test well from the same sample. Negative counts generated by this background subtraction were converted to zero. The mean number of spots of the test sample was then calculated and expressed as spot forming cells/million (sfc/m). A positive response was defined as a significant difference (p=<0.05) between average of the number of spot forming cells (sfc) in test wells and the average of negative control wells (Student's two tailed t-test), and at least a doubling of sfc in test wells relative to negative control wells, and a difference of at least ten sfc between test and negative control wells (Sedegah, et al., PLoS One, 6: e24586 (2011)).

[2] = test system: PBMC depleted of T-cell subsets; assay: ELISpot IFN-γ after T-cell subset depletion (CD4+ or CD8+ Dynabeads, mock control); settings: for CD4+ depl. sfc/m: after CD4+ T cell depletion; for CD4+ depl. (%) percent change in ELISpot activity: after CD4+ T cell depletion vs control depletion; for CD8+ depl. sfc/m: after CD8+ T cell depletion; for CD8+ depl. (%) percent change in ELISpot activity: after CD8+ T cell depletion vs control depletion; for Control dept. sfc/m: mock (control) depletion
Description: For characterization of ELISpot IFN-γ-producing cells by T-cell subset depletions PBMC were depleted of T-cell subsets using anti-human CD4+ or anti-CD8+ coated Dynabeads M-450 (Dynal, Great Neck, N.Y.) following the manufacturer's instructions. Mock depletion was done with Dynabeads coated with sheep anti-mouse IgG. Flow cytometry confirmed that T-cell subset depletions were >99% in all experiments. Data are presented as the spot-forming cells/million (sfc/m) and percent decrease or increase in activity after depletion.
To further evaluate the predicted epitopes, ELISpot depletion assays were performed using PBMC from four volunteers stimulated with six predicted and tested epitopes. CD8+ T cell depletion reduced responses to Cp1 and Cp9 by 82%100%.

CD8+ T cells = assay: Intracellular cytokine staining (ICS), IFN-γ, CD8+ population; settings: for CD8+ % (per cent of CD8+ T cells expressing IFN-γ): ICS, positive >0.03%
Procedure: (§1) Intracellular cytokine staining (ICS) was performed as published previously (Stewart, et al, Infect. Immun., 75: 2283-90 (2007)). Cryopreserved PBMC were thawed, washed, and resuspended at 10×10^6 cells per mL in complete medium. Peptides were used at 10 μg/mL and costimulatory antibodies anti-CD28 and […] (BD Bioscience, San Jose, Calif.) were used at 1 μg/mL. Stimulants were added to cells and incubated at 37° C. with 5% CO2 for 2 hours. Cells were stained with anti-CD3, anti-CD4, anti-CD8, anti-IFN-γ, anti-TNFα, and anti-IL2 and the entire available sample was acquired on a BD LSRII using FACSDiVa (BD Bioscience) software. Data were analyzed using FlowJo Software (Treestar, Inc.). The gating strategy involved progressively measuring total cells; viable cells; lymphocytes; T cells; CD4+ or CD8+ populations; and finally a specific cell type expressing a specific cytokine. Results were transferred to Prism (GraphPad) for graphing and statistical analysis. Data for peptides were corrected for media responses. A positive response was greater than the medium controls+3 standard deviations (0.03%).

CD4+ T cells = assay: Intracellular cytokine staining (ICS), IFN-γ, CD4+ population; settings: for CD4+ % (per cent of CD4+ T cells expressing IFN-γ): ICS, positive >0.03%
Procedure: as §1

[3] = volunteer 37 (Ad-C), synthesized epitope, single value or first of two assays
[4] = ICS assays, volunteers of Table 6
[5] = volunteer 58 (Ad-C), synthesized 8-10mer epitope
[6] = volunteer 156 (Ad-CA), synthesized 8-10mer epitope

CC[C@H](C)[C@H](NC(=O)[C@@H](N)CC(C)C)C(=O)N[C@@H](CCSC)C(=O)N[C@H](C(=O)N[C@@H](CC(C)C)C(=O)N[C@@H](CO)C(=O)N[C@@H](Cc1ccccc1)C(=O)N[C@@H](CC(C)C)C(=O)N[C@@H](Cc1ccccc1)C(=O)O)C(C)C [Epitope E17a] (H-LIMVLSFLF-OH; N-terminus and C-terminus assumed)
Epitope sfc/m ([1]; volunteer 37 (Ad-C), synthesized epitope, second assay (second value of the cell)): 38 sfc/m
Epitope sfc/m [1, 3]: 55 sfc/m
Epitope sfc/m ([1]; volunteer 40 (Ad-C), synthesized epitope, first of two assays): 290 sfc/m
Epitope sfc/m ([1]; volunteer 40 (Ad-C), synthesized epitope, second assay (second value of the cell)): 166 sfc/m
ELISpot response to synthesized epitope (in words) [1]: recognized; also recorded: positive; also recorded: demonstrated activity
confirmation as recalling CD8+ T cell responses ([2]; ELISpot depletion and ICS studies): confirmed as recalling CD8+ T cell responses
CD4+ depl. sfc/m ([2]; V40): 210 sfc/m
CD4+ depl. (%) percent change in ELISpot activity ([2]; V40): −11%
CD8+ depl. sfc/m ([2]; V40): 23 sfc/m
CD8+ depl. (%) percent change in ELISpot activity ([2]; V40): −90%
Control dept. sfc/m ([2]; V40): 236 sfc/m
CD4+ depl. sfc/m ([2]; V156): 264 sfc/m
CD4+ depl. (%) percent change in ELISpot activity ([2]; V156): −18%
CD8+ depl. sfc/m ([2]; V156): 85 sfc/m
CD8+ depl. (%) percent change in ELISpot activity ([2]; V156): −82%
Control dept. sfc/m ([2]; V156): 307 sfc/m
ICS CD8+ T cell recall responses (in words) (CD8+ T cells; [4]): positive
CD8+ % (per cent of CD8+ T cells expressing IFN-γ) (CD8+ T cells; V40): 0.54%
CD8+ % (per cent of CD8+ T cells expressing IFN-γ) (CD8+ T cells; V156): 0.26%
ICS CD4+ T cell recall responses (in words) (CD4+ T cells; [4]): negative
CD4+ % (per cent of CD4+ T cells expressing IFN-γ) (CD4+ T cells; V40): 0.02%
CD4+ % (per cent of CD4+ T cells expressing IFN-γ) (CD4+ T cells; V156): 0.01%

VNSSIGLIMVLSFLF [Cp9-C64, 15mer CSP peptide aa 381-395]
15 mer sfc/m ([1]; volunteer 08 (Ad-CA)): 91 sfc/m

TNLYNELEMNYYGKQ [Cp2-C12, 15mer CSP peptide aa 45-59]
15 mer sfc/m ([1]; volunteer 01 (Ad-CA)): 119 sfc/m
15 mer sfc/m ([1]; volunteer 12 (Ad-CA)): 411 sfc/m

SVSSFLFVEALFQEY [Cp1-C3, 15mer CSP peptide aa 9-23]
15 mer sfc/m ([1]; volunteer 05 (Ad-CA)): 65 sfc/m
15 mer sfc/m ([1]; volunteer 58 (Ad-C)): 29 sfc/m
15 mer sfc/m ([1]; volunteer 69 (Ad-C)): 385 sfc/m
ELISpot response to individual 15mer peptide (in words) [1]: positive

SVFNVVNSSI [Epitope E13]
Epitope sfc/m [1, 3]: 28 sfc/m
Epitope sfc/m [1, 5]: 80 sfc/m
ELISpot response to synthesized epitope (in words) [1]: positive; also recorded: demonstrated activity

EKKICKMEKCSSVFN [Cp9-C60, 15mer CSP peptide aa 365-379]
15 mer sfc/m ([1]; volunteer 61 (Ad-C)): 39 sfc/m

FLFVEALFQEYQCYG [Cp1-C4, 15mer CSP peptide aa 13-27]
15 mer sfc/m ([1]; volunteer 01 (Ad-CA)): 48 sfc/m
15 mer sfc/m ([1]; volunteer 05 (Ad-CA)): 44 sfc/m
15 mer sfc/m ([1]; volunteer 12 (Ad-CA)): 87 sfc/m
15 mer sfc/m ([1]; volunteer 69 (Ad-C)): 368 sfc/m
ELISpot response to individual 15mer peptide (in words) [1]: positive

SSIGLIMVLSFLFLN [Cp9-C65, 15mer CSP peptide aa 383-397]
15 mer sfc/m ([1]; volunteer 01 (Ad-CA)): 46 sfc/m
15 mer sfc/m ([1]; volunteer 02 (Ad-CA)): 44 sfc/m
15 mer sfc/m ([1]; volunteer 08 (Ad-CA)): 62 sfc/m

CC[C@H](C)[C@H](NC(=O)[C@@H](N)CC(C)C)C(=O)N[C@@H](CCSC)C(=O)N[C@H](C(=O)N[C@@H](CC(C)C)C(=O)N[C@@H](CO)C(=O)N[C@@H](Cc1ccccc1)C(=O)N[C@@H](CC(C)C)C(=O)N[C@@H](Cc1ccccc1)C(=O)N[C@@H](CC(C)C)C(=O)O)C(C)C [Epitope E17]
Epitope sfc/m [1, 6]: 156 sfc/m
ELISpot response to synthesized epitope (in words) [1]: positive

DKHIKEYLNKIQNSL [Cp6-C47]
15 mer sfc/m ([1]; volunteer 61 (Ad-C)): 48 sfc/m

FLFVEALFQE [Epitope E1]
Epitope sfc/m [1, 5]: 49 sfc/m
Epitope sfc/m [1, 6]: 105 sfc/m
ELISpot response to synthesized epitope (in words) [1]: active; also recorded: positive; also recorded: demonstrated activity

QEYQCYGSSSNTRVL [Cp1-C6, 15mer CSP peptide aa 21-35]
15 mer sfc/m ([1]; volunteer 58 (Ad-C)): 83 sfc/m

ELNYDNAGTNLYNEL [Cp2-C10, 15mer CSP peptide aa 37-51]
15 mer sfc/m ([1]; volunteer 41 (Ad-C)): 35 sfc/m

VFNVVNSSIGLIMVL [Cp9-C63, 15mer CSP peptide aa 377-391]
15 mer sfc/m ([1]; volunteer 08 (Ad-CA)): 109 sfc/m
15 mer sfc/m ([1]; volunteer 61 (Ad-C)): 80 sfc/m
ELISpot response to individual 15mer peptide (in words) [1]: positive

KCSSVFNVVNSSIGL [Cp9-C62, 15mer CSP peptide aa 373-387]
15 mer sfc/m ([1]; volunteer 01 (Ad-CA)): 116 sfc/m

KEYLNKIQNSLSTEW [Cp6-C48]
15 mer sfc/m ([1]; volunteer 05 (Ad-CA)): 106 sfc/m
15 mer sfc/m ([1]; volunteer 41 (Ad-C)): 103 sfc/m
15 mer sfc/m ([1]; volunteer 58 (Ad-C)): 45 sfc/m
ELISpot response to individual 15mer peptide (in words) [1]: positive

CC[C@H](C)[C@H](NC(=O)[C@H](C)N)C(=O)N[C@@H](CC(C)C)C(=O)N[C@@H](CO)C(=O)N[C@H](C(=O)N[C@@H](CO)C(=O)N[C@@H](CO)C(=O)N[C@@H](Cc1ccccc1)C(=O)N[C@@H](CC(C)C)C(=O)O)C(C)C [Epitope E18a]
ELISpot response to synthesized epitope (in words) [1]: demonstrated activity

IMVLSFLFL (listed as Plasmodium falciparum) [Epitope E21, CSP aa 388-396]
Epitope sfc/m ([1]; volunteer 125 (Ad-CA), synthesized 8-10mer epitope): 29 sfc/m
ELISpot response to synthesized epitope (in words) [1]: low to modest response; also recorded: demonstrated activity

NELEMNYYGKQENWY [Cp2-C13, 15mer CSP peptide aa 49-63]
15 mer sfc/m ([1]; volunteer 01 (Ad-CA)): 116 sfc/m
15 mer sfc/m ([1]; volunteer 12 (Ad-CA)): 334 sfc/m

AILSVSSFLF [Epitope E18]
Epitope sfc/m ([1]; volunteer 63 (Ad-C), synthesized 8-10mer epitope): 41 sfc/m
ELISpot response to synthesized epitope (in words) [1]: positive

CC(C)C[C@H](NC(=O)[C@H](C)NC(=O)[C@H](CCC(=O)O)NC(=O)[C@@H](NC(=O)[C@H](Cc1ccccc1)NC(=O)[C@@H](N)CC(C)C)C(C)C)C(=O)N[C@@H](Cc1ccccc1)C(=O)N[C@@H](CCC(N)=O)C(=O)N[C@@H](CCC(=O)O)C(=O)N[C@@H](Cc1ccc(O)cc1)C(=O)O [Epitope E3] (H-LFVEALFQEY-OH; N-terminus and C-terminus assumed)
Epitope sfc/m ([1]; volunteer 69 (Ad-C), synthesized 8-10mer epitope): 259 sfc/m
Epitope sfc/m ([1]; volunteer 127 (Ad-CA), synthesized 8-10mer epitope): 99 sfc/m
ELISpot response to synthesized epitope (in words) [1]: active; also recorded: positive; also recorded: demonstrated activity

EALFQEYQCYGSSSN [Cp1-05, 15mer CSP peptide aa 17-31]
15 mer sfc/m ([1]; volunteer 58 (Ad-C)): 105 sfc/m
